Experimental findings from a melting point compilation (Tetko et al.; mined from patent text by program, amines drawn as free bases though some values may be those of a salt) are described below.

SMILES strings stand for the structures.

For the molecule `CCn1cc(C(=O)NCc2ccc(Cl)cc2)c(=O)c2cc(C#CCOC(=O)CN3CCOCC3)sc21`, the melting point was 168 to 170 °C.
`C=CCNc1cnc(-c2ccccc2)c(-c2ccccc2)n1` showed a melting point of 97 to 100 °C.
Consider `CCOC(=O)Cc1nnc(NS(=O)(=O)c2ccc(NC(C)=O)cc2)s1`, for which the melting point was 156 to 157 °C.
The value for `CCOc1cc(N)ccc1-c1ccc(-c2ccc(N)cc2OCC)o1` was 192 to 193 °C; that for `CN(C)c1cccc(-c2nc3c(N[C@H]4[C@@H](C(N)=O)[C@@H]5C=C[C@H]4C5)c(Br)cnc3[nH]2)c1` was 220 to 221 °C.
As for `CCSC1(CCO)C(=O)Nc2ccc(F)cc21` (stereo not drawn), the figure is 125 °C; as for `COc1cccc(CNC(=O)c2nc(OC)c3ccccc3n2)c1`, 129 to 130 °C; as for `Cn1cc(-c2ccccc2)c(=O)c(-c2cccc(I)c2)c1`, 190 to 193 °C.
`CC1CC(=O)c2c(Cl)c(F)cc3c(=O)c(C(=O)O)cn1c23` (single isomer, unassigned; (-)) showed a melting point of 294 to 296 °C.
The value for `CC1(C)C2CCC1(CN1CN(CC34CCC(CC3)C4(C)C)CN(CC34CCC(CC3)C4(C)C)C1)CC2` was 175 to 180 °C; that for `CC(C)(C)OC1C2C=CC1C1N=NC21` (stereo not drawn) was 78 °C.
The molecule `CCCCCCCCC1C=CC(/C=C/c2ccc(C(=O)O)o2)=C2N=C3CCCC(C)(C)C3=C21` (stereo not drawn) had a melting point of 115 to 117 °C.
Molecule `Clc1ccc(-c2ncc3nc(Cl)cc(Cl)n23)cc1` registered a melting point of 203 to 205 °C.
As for `COc1ccc(C(=O)Nc2ccc3ccc(Cl)nc3n2)cc1`, the melting point is 208 °C.
As for `O=C(Nc1c(C(F)(F)F)n[nH]c1-c1ccccc1)c1ccccc1`, the melting point is 229 to 230 °C.
As for `CON=C(C1=NCCS1)c1ccccc1COc1cc(C)ccc1C`, the figure is 79 to 82 °C.
The value for `CCCCOc1c(NC(CC)CC)c(=O)c1=O` was 65 to 66 °C; that for `CO/C(=C\C=C\c1cc2ccccc2o1)C(=O)O` was 206 °C; that for `O=C(O)CCCCCCCCCCCNC(=O)CCCCCCCCC/C=C/c1ccccc1` was 119 to 121 °C.
The value for `CCC(=O)Nc1cccc2c1C(=O)c1c-2n[nH]c1-c1ccc(OC)cc1` was 287 °C; that for `O=C(O)C(Cc1ccccc1)NCC1c2c(c3ccccc3c3ccccc23)-c2c1c1ccccc1c1ccccc21` (stereo not drawn) was 178 to 180 °C.
As for `COCc1cc(O)n[nH]1`, the melting point was 123 to 125 °C.
As for `Cc1nc2c(N)nc3ccccc3c2n1CC1(O)CCCC1`, the figure is 306 to 308 °C.
As for `COc1ccc(Cn2nc(NC(=O)c3cc(NC(=O)c4cc([N+](=O)[O-])nn4Cc4ccc(OC)cc4)nn3Cc3ccc(OC)cc3)cc2C(=O)O)cc1`, the figure is 258 to 260 °C; as for `O=C(CCCCC1SCC2NC(=O)NC21)NCCOCCOCCN1C(=O)C(Br)=C(Br)C1=O` (stereo not drawn), 100 to 102 °C.
As for `O=C(O)C1=Cc2c(cc(Cl)c(Cl)c2Cl)OC1C(F)(F)F` (stereo not drawn), the figure is 236 to 239 °C; as for `N#CC(O)COc1ccccc1` (stereo not drawn), 59 °C.
The molecule `NN1CCNC1=C[N+](=O)[O-]` registered a melting point of 159 to 160 °C.
On to `CN(N)C(=O)Nc1ccccc1Oc1ccccc1`, for which the melting point was in the range of 117 to 119 °C.
The value for `CCOC(=O)c1cn2c3c(c(F)c(F)cc3c1=O)OCC2COC(=O)c1cc([N+](=O)[O-])cc([N+](=O)[O-])c1` (stereo not drawn) was 240 to 242 °C; that for `O=C(Nc1ccc(Cl)c(C(F)(F)F)c1)N[C@H]1CC[C@H](O)CC1` was 203 to 207 °C; that for `CCc1c(C)n(C)c(=O)n(-c2cc(OC(C)C)c(Cl)cc2F)c1=O` was 124 to 125 °C.
As for `COc1cc2c(cc1OC)C(C=Cc1ccc(N)cc1)=NNC(C)C2` (stereo not drawn), the figure is 152 to 154 °C; as for `CC(C)(C)c1cc(CCC(=O)NN)cc(C(C)(C)C)c1O`, 153 to 154 °C.
The value for `CS(=O)(=O)Nc1ccc(NC(=O)CCCc2ccc(N=C(N)c3cccs3)cc2)cc1` was 187 to 188 °C.
`O=C(O)C(Cc1ccccc1)Oc1ccc(-c2ccc(-c3c(Br)oc4ccccc34)cc2)cc1` (stereo not drawn) had a melting point of 148 to 149 °C.
Turning to `Cc1nn(CC2CCCC2)c2nc(-c3ccncc3)nc(N)c12`, the melting point lay within 177 to 178 °C.
The value for `CC(C)NC(=O)N1CCc2cc(S(=O)(=O)n3cc(-c4ccccc4)[nH]c3=O)ccc21` was 214 to 216 °C; that for `CCCCc1ccc(CCCCS(=O)(=O)Cc2cccc(/C=C/c3cccc(NC(=O)CC(CC)(CC)C(=O)O)c3)n2)cc1` was 155 to 157 °C.
The value for `COCCCc1nnc(-c2ccc(-c3ccccc3)nc2)n1-c1cccc(C#N)c1C` was 144 to 145 °C.
The value for `Cc1ccc(-c2cc(=O)cc(C(=O)O)o2)cc1` was 237 to 238 °C.
With `CC1(C)Oc2ccc(OC(F)(F)F)cc2[C@@H](NC(=O)c2ccco2)[C@@H]1O` (relative stereo), the melting point is 146 to 147 °C.
As for `Cc1ccc2ccc(N3C(=O)c4ccccc4C3OC(=O)N3CCN(C)CC3)nc2n1` (stereo not drawn), the figure is 190 °C; as for `Cc1cc(Br)ccc1-n1ccc(O)n1`, 208 to 210 °C; as for `COc1ccc(C(=O)Nc2ccccc2C(C)(O)c2ccccn2)cc1` (stereo not drawn), 127 to 128 °C.
As to `CCCCN(C(C)=O)C1CC(C)(C)N(OC(=O)C(C)(C)C)C(C)(C)C1`, the melting point lay within 81 to 94 °C.
The value for `CC(=O)c1ccc(OCc2ccccc2)c(CCCc2ccccc2)c1O` was 115 to 116 °C; that for `CC(C)[Si](Oc1ccc2c(c1)CCC2=O)(C(C)C)C(C)C` was 63 to 63.5 °C.
`CC1=C(c2ccncc2)SC(Nc2ccccc2)C(=O)N1` (stereo not drawn) gave a melting point of 162 to 165 °C.
As for `COc1cc(-n2cccn2)ccc1-n1cc(OC)c(=O)c(-c2ccnn2-c2cccc(Cl)c2)n1`, the figure is 167 to 168 °C; as for `Oc1cc(Br)cc(O)c1F`, 83 to 86 °C.
`Cn1cc(Oc2ccc(Cl)c(Cl)c2)c(=O)c(-c2cccc(C(F)(F)F)c2)c1` showed a melting point of 127 to 129 °C.
Consider `Nc1cc2c(Nc3ccc4c(cnn4Cc4cccc(F)c4)c3)ncnc2cn1`, for which the melting point was in the range of 241 to 244 °C.
As for `CC(=O)c1ccc(Nc2c(C(=O)NOCCO)ccc(F)c2F)c(Cl)c1`, the figure is 162 °C.
The value for `COc1cc(N2C(=O)c3ccccc3C2=O)c(F)cc1C#N` was 245 °C; that for `CCCCN(CCCC)CCCOc1ccc(-c2cn3cccc(C)c3n2)cc1OC` was 127 to 130 °C; that for `CCc1c(C(=O)c2ccc(OC)cc2)c2cccc3c2n1C(CN1CCOCC1)CO3` (stereo not drawn) was 186 to 187 °C.
As to `Cn1nc(C(F)(F)F)c(CS(=O)C2=NOC(C)(C)C2)c1OC(F)F` (stereo not drawn), the melting point is 112 to 114 °C.
The value for `Clc1ccc(-c2c[nH]cn2)cc1` was 146 to 148 °C; that for `Cc1ccc(NCc2ccc(N(C)C)cc2)cc1C` was 73 to 75 °C.
Regarding `Clc1ccc(Sc2ccc(-c3ccccc3)s2)cc1`, the melting point lay within 85 to 87 °C.
The value for `O=C1NCCN1Cc1ccc(OCc2ccccc2)cc1` was 110 to 122 °C; that for `COCCNC(=O)c1cccc(-c2cccc3c(F)c(Cc4cccc(C(F)(F)F)c4)sc23)c1` was 115 to 116 °C; that for `CCCCc1nc(C(O)CCC)c(C(N)=O)n1Cc1ccc(-c2ccccc2C(=O)O)cc1` (stereo not drawn) was greater than 110 °C.
As for `CC(C)Oc1ccc(/C=C(\NC(=O)c2ccc(OCCCCC3CC3)cc2)C(=O)NCCO)cc1`, the figure is 53 to 55 °C.
Molecule `Cc1ccc(C(=O)C(O)[C@H]2OC[C@@H](n3cc(I)c(=O)n(C(=O)c4ccc(C)cc4)c3=O)O2)cc1` (stereo partly drawn) registered a melting point of 166 to 168 °C.
Take `CCc1nn(C2CCCC2)c2cc(C(=O)Nc3c(Cl)cccc3Cl)ccc12`: the melting point lay within 177 to 179 °C.
As for `CCCn1cc2c(C3C(=O)Nc4ccc(Br)cc43)ncnc2n1` (stereo not drawn), the figure is greater than 300 °C; as for `COC1=CN=C(COC(c2ccccc2)(c2ccccc2)c2ccccc2)CC1=O`, 185 to 187 °C.
For `COc1cc(NCCN(Cc2ccccc2)Cc2ccccc2)ccc1C(N)=O`, the melting point is 136 to 138 °C.
The value for `CC=C1CCC2C3CC=C4CC(OC(C)=O)CC(OC(C)=O)C4(C)C3CCC12C` (stereo not drawn) was 90 to 91 °C; that for `Cc1c(Br)c2c(c(C)c1NC(=O)OC(C)(C)C)CCO2` was 176 to 177 °C.
The value for `CC1CC2(C)C(O)CCC2C2C(C)CC3=CC(=O)CCC3C12` (stereo not drawn) was 155 to 157 °C; that for `O=S1(=O)N=C(n2ccnc2)Nc2cc(F)c(F)cc21` was 264 to 266 °C; that for `CCS(=O)(=O)CCC(=O)NNC(=O)N1Cc2ccccc2Oc2c(Cl)cccc21` was 209 to 211 °C.
As for `C1c2c(-c3nn[nH]n3)n[nH]c2[C@@H]2C[C@H]12`, the figure is 231 °C; as for `CC(C)(C)OC(=O)NCCON=C(c1ccccc1)c1cc2ccncc2[nH]1`, 84 to 88 °C; as for `Cn1ccnc1S(=O)(=O)c1ccccc1Cl`, 156 to 159 °C.
`BrCc1c(Br)c(Br)c(CBr)c(Br)c1Br` showed a melting point of 268 to 271 °C.
On to `COC(=O)C=Cc1cc(OC)ccc1-c1ccccc1`, for which the melting point fell in the range of 175 to 177 °C.
With `Cc1noc(C)c1S(=O)(=O)Nc1cccc(C=C2c3ccccc3CCc3ccccc32)c1`, the melting point was 149 °C.
As for `CCCc1nn(-c2ccc(C(F)(F)F)cn2)cc1CCCOc1ccc(CCC(=O)O)cc1OC`, the figure is 126 to 127 °C.
As for `CN1CCN(CC2=NC(NC(=O)OCc3ccccc3)C(=O)N(C(C)(C(N)=O)c3ccccc3)c3ccccc32)CC1` (stereo not drawn), the figure is 65 to 70 °C.
As for `CC(=O)c1cc(C(=O)c2ccc3ccccc3c2)c[nH]1`, the figure is 172 to 174 °C.
The molecule `O=C(O)c1cc(Cl)cc2c1[nH]c1ccccc12` gave a melting point of 245 °C.
On to `COCC(C)Oc1cc(Oc2ccc(S(C)(=O)=O)cc2)cc2cc(C(=O)O)[nH]c12` (stereo not drawn), for which the melting point was 136 to 137 °C.
As for `CCC(=O)NN=C(C)c1cnccn1`, the figure is 181 °C; as for `O=C(O)c1ccc2c(c1)S(=O)c1cc(F)ccc1C=C2` (stereo not drawn), 255 to 257 °C.

Broadly, the melting point is the temperature of the solid-liquid transition.
